Measurements published in patent US6673839B1, “Pharmaceutical compositions with antitumour activity” (Universita' Degli Studi di Catania, priority 1998, dated 2004).

Legend:
Type in all cases: cell-based, human
[1] = system: Cells from Nasopharynx Carcinoma Explant; test: In vitro short-term chemosensitivity assay (MTT); details: Table 1, 24 h
Experimental: (§1) The effects of L-aC on cells from 4 primitive epidermoid carcinomas of the larynx and 1 primitive undifferentiated carcinoma of the nasopharynx were tested.
(§2) Tissue fragments from the tumour mass were mechanically dissociated in Hank's solutions adding an antibiotic and an antifungal to obtain a cell monosuspension free of agglomerates. The resulting suspension was centrifuged at 1200 rpm for 5 minutes and the pellet was resuspended in MEM culture medium supplemented with 10% of patient serum, to obtain a concentration of 10^5 cells/ml. Subsequently, 180 μl of the resulting suspension were dispensed in microplate wells and incubated under 5% CO2 atmosphere at 37° C. for 3 days. After that, the antitumor medicaments were added in the amount of 20 μl for each well, at a concentration of 0.1×, 1× and 10× the maximum serum concentrations that can usually be reached in clinical practice. 24 h after the beginning of the exposure to the antitumour medicament, 100 μl of MTT were added, and after 4 h, a further 150 μl of dimethylsulfoxide were added.
(§3) The optical density was evaluated by a Uniscan microspectrophotometer with a […] wavelength filter. Cytotoxicity was evaluated as percentage of the optical density of the treated sample compared with the optical density of the control.
(§4) Bleomycin (BLEC), […] (CDDP), 5-fluoruracil (5-FU), vincristine (VCR), epidoxorubicin (Epi-Dx) and methotrexate (MTX) were tested for comparison purposes.
(§5) L-aC was tested at the following concentrations: 0.2-2-20 mg/ml.
(§6) In vitro short-term chemosensitivity assay (according to Hill and coll.)
(§7) (Cell Vitality Percentage After Exposure to the Antitumoral)—Raw Data
(Cells from Nasopharynx Carcinoma Explant)

[2] = system: Cells from Larynx Carcinoma Explant; test: In vitro short-term chemosensitivity assay (MTT)
Experimental: as §1, §2, §3, §4, §5, §6, §7
(Cells from Larynx Carcinoma Explant)

[3] = system: cells from 4 primitive epidermoid carcinomas of the larynx and 1 primitive undifferentiated carcinoma of the nasopharynx; test: In vitro short-term chemosensitivity assay (MTT), all five explants; details: five explants
Experimental: as §1, §2, §3, §4, §5

[4] = 0.1x maximum clinical serum concentration (L-aC tested at 0.2-2-20 mg/ml)
[5] = 1x maximum clinical serum concentration
[6] = 10x maximum clinical serum concentration

| Molecule | Cell Vitality Percentage After Exposure [1, 4] [%] | Cell Vitality Percentage After Exposure [1, 5] [%] | Cell Vitality Percentage After Exposure [1, 6] [%] | Cell Vitality Percentage After Exposure ([2]; Table 2 explant, 0.1x) [%] | Cell Vitality Percentage After Exposure ([2]; Table 2 explant, 1x) [%] | Cell Vitality Percentage After Exposure ([2]; Table 2 explant, 10x) [%] | Cell Vitality Percentage After Exposure ([2]; Table 3 explant, 0.1x) [%] | Cell Vitality Percentage After Exposure ([2]; Table 3 explant, 1x) [%] | Cell Vitality Percentage After Exposure ([2]; Table 3 explant, 10x) [%] | Cell Vitality Percentage After Exposure ([2]; Table 4 explant, 0.1x) [%] | Cell Vitality Percentage After Exposure ([2]; Table 4 explant, 1x) [%] | Cell Vitality Percentage After Exposure ([2]; Table 4 explant, 10x) [%] | Cell Vitality Percentage After Exposure ([2]; Table 5 explant, 0.1x) [%] | Cell Vitality Percentage After Exposure ([2]; Table 5 explant, 1x) [%] | Cell Vitality Percentage After Exposure ([2]; Table 5 explant, 10x) [%] | most active medicaments (cases out of 5) [3] |
| --- | --- | --- | --- | --- | --- | --- | --- | --- | --- | --- | --- | --- | --- | --- | --- | --- |
| CC[C@]1(O)C[C@H]2CN(CCc3c([nH]c4ccccc34)[C@@](C(=O)OC)(c3cc4c(cc3OC)N(C=O)[C@H]3[C@@](O)(C(=O)OC)[C@H](OC(C)=O)[C@]5(CC)C=CCN6CC[C@]43[C@@H]65)C2)C1 [VCR, vincristine] | 7.8 | 4.6 | 3.8 | 70 | 45 | 11 | 32 | 19 | 4.8 | 1.9 | 1.3 | 1.3 | 23 | 4.2 | 2 | 4/5 |
| O=c1[nH]cc(F)c(=O)[nH]1 [5-FU, 5-fluoruracil] | 43 | 12 | 5.7 | 53 | 38 | 13 | 52 | 45 | 23 | 40 | 14 | 14 | 55 | 13 | 8.2 | 1/5 |
| CN(Cc1cnc2nc(N)nc(N)c2n1)c1ccc(C(=O)N[C@@H](CCC(=O)O)C(=O)O)cc1 [MTX, methotrexate] | 13.5 | 5 | 3.9 |  |  |  |  |  |  | 18 | 4 | 3.1 |  |  |  | 2/5 |
| N.N.O=C([O-])C1(C(=O)[O-])CCC1.[Pt+2] [CBP, carboplatin] | 7.1 | 7 | 6.5 | 78 | 58 | 34 | 88 | 50 | 21 |  |  |  | 72 | 53 | 45 |  |
| COc1cccc2c1C(=O)c1c(O)c3c(c(O)c1C2=O)C[C@@](O)(C(=O)CO)C[C@@H]3O[C@H]1C[C@H](N)[C@@H](O)[C@H](C)O1 [Epi-Dx, epidoxorubicin] | 14 | 7.8 | 4.8 | 59 | 21 | 7 | 57 | 32 | 16 | 16 | 8 | 8 | 60 | 21 | 18 | 2/5 |
| Bleomycin [BLM] |  |  |  | 55 | 36 | 17 | 81 | 68 | 34 | 82 | 79 | 62 | 60 | 35 | 31 |  |
